# Test results as given in patent US20260226031A1, “NOVEL COMPOUNDS” (NRG THERAPEUTICS LTD., priority 2023, published 2026).
# Key:
# mPTP [1] = experiment: mPTP activity (Ca2+ retention) assay in isolated rat brain mitochondria; assay type: biochemical; settings: for mPTP Rat brain pIC50: isolated rat brain mitochondria, Fluo5N fluorescence at 10 min after Ca2+ (75 μM) bolus
# Protocol: MPTP activity was measured in brain mitochondria freshly isolated from female Sprague Dawley (250 to 300 gram) rats. Anaesthetised rats were perfused in-situ with ~40 ml cold Dulbecco's Phosphate Buffered Saline (DPBS), then brains dissected and transferred into 30 ml Isolation Buffer (225 mM mannitol, 75 mM sucrose, 1 mM EGTA, adjusted to pH 7.4 with 1M NaOH). The brain was minced using tweezers and a scalpel into ~5 mm pieces then transferred into a 50 ml Potterton Dounce homogenization tube on ice containing 10 ml ice-cold isolation buffer (as above with addition of Complete Protease inhibitor; 1 tablet per 50 ml buffer). Homogenisation was carried out using a Teflon® pestle at 1800 rpm. The slurry was centrifuged at 2000 g for 10 min at 4° C., then the supernatant centrifuged at 12,000 g for 9 min. The pellet was resuspended with a dounce homogeniser in isolation buffer as above but with the addition of 0.02% digitonin, centrifuged at 12,000 g for 11 min and finally resuspended in 5 ml modified isolation buffer (as above but with EGTA reduced to 0.1 mM).
# Test compounds were prepared in 384 well polypropylene assay plates as described above for the liver mitochondria assay. A stock mitochondria/Fluo5N assay solution was prepared in 5.6 ml assay buffer (120 mM mannitol, 40 mM MOPS, 5 mM KH2PO4, 60 mM KCl, 10 mM pyruvate, 2 mM malate, 2 mM MgCl2, 20 μM ADP, 1.26 μM oligomycin A, adjusted to pH 7.4) supplemented with Fluo5N pentapotassium salt (2 μM) and 1 ml mitochondria suspension, then transferred (15 μl) into the assay plate containing test compounds and incubated for 10 min at RT. Assay plates were then transferred to a FLIPR Tetra plate reader (Molecular Devices). Dye fluorescence was then measured every 3 sec for a total of 10 min.
# mPTP [2] = experiment: mPTP activity (Ca2+ retention) assay in isolated rat liver mitochondria; assay type: biochemical; settings: isolated rat liver mitochondria; Fluo5N fluorescence at 10 min after CaCl2 (75 μM) bolus; DMSO 0%, 5 μM cyclosporin A 100% inhibition
# Description: Pharmacological inhibition or modulation of the mPTP can be measured in well characterised ‘Ca^2+ retention’ assays performed in isolated mitochondria. In vitro, isolated mitochondria rapidly sequester exogenous Ca^2+ until the intramitochondrial Ca^2+ concentration reaches the threshold for mPTP activation. Once the pore is activated, mitochondrial integrity is compromised and the stored Ca^2+ is released. The distribution of Ca^2+ between extra- and intra-mitochondrial compartments can be measured in real time with the use of membrane-impermeant Ca^2+ sensitive fluorescent dyes. Depending on the configuration of the assay, inhibition or modulation of the mPTP either delays the opening of the pore or increases the concentration of Ca^2+ required to induce mPTP opening.
# MPTP activity was measured in mitochondria freshly isolated from female Sprague Dawley (250 to 300 gram) rat livers using the following method. Cervical dislocation was performed on the rat. The liver was then perfused in-situ with ~40 ml cold Dulbecco's Phosphate Buffered Saline (DPBS) prior to dissection and transferred into 30 ml Isolation Buffer (250 mM Sucrose, 10 mM KCl, 1 mM EGTA, 1 mM EDTA, 25 mM HEPES, adjusted to pH 7.5 with 1M NaOH). Each lobe of the liver was then removed from the buffer, minced using tweezers and a scalpel into ~5 mm pieces then transferred into a 50 ml Potterton dounce homogenization tube on ice containing 30 ml ice-cold centrifugation buffer (300 mM Trehalose, 25 mM HEPES, 1 mM EGTA, 1 mM EDTA, 10 mM KCl, adjusted to pH 7.5 with 1M NaOH and supplemented with 0.1% bovine serum albumin (BSA) and complete protease inhibitor cocktail (one tablet of inhibitor per 50 mls of buffer). Homogenisation was carried out using a Teflon® pestle at 1800 rpm. The slurry was centrifuged at 800 g for 10 min at 4° C., then the supernatant centrifuged at 10,000 g for 10 min. The pellet was washed once with FLIPR assay buffer (75 mM Mannitol, 25 mM Sucrose, 5 mM Potassium Phosphate Monobasic, 20 mM Tris base, 100 mM KCl, 0.1% BSA adjusted to pH 7.4 with 5M HCl) centrifuged again, then resuspended in FLIPR assay buffer to a concentration of 8.8 mg/ml protein.
# Tested compounds (10 mM stock in DMSO) were serially diluted in DMSO in half log steps to generate 10 test concentrations (final concentrations in assay 30 μM to 1 nM). An intermediate dilution of 5 μl DMSO samples into 247 μl FLIPR assay buffer was carried out prior to transfer of 5 μl into duplicate wells of a 384 well polypropylene assay plate. Control wells were 0.5% (v/v) DMSO and 5 μM cyclosporin A.
# A stock mitochondria/Fluo5N assay solution was prepared in 5.6 ml FLIPR assay buffer (at RT) supplemented with succinate disodium salt (10 mM), rotenone (1 μM), Fluo5N pentapotassium salt (2 μM) and 1 ml mitochondria suspension, then transferred (15 μl) into the assay plate containing test compounds and incubated for 10 min at RT. Assay plates were processed for fluorescence detection on either a FLIPR Tetra (Molecular Devices) or CLARIOstar (BMG) plate reader. For kinetic fluorescence detection on the FLIPR, dye fluorescence was measured every 3 sec for a total of 10 min. After 12 sec, a 2.5 μl bolus of CaCl2 (75 μM) was added from a source plate containing 675 μM CaCl2 in FLIPR assay buffer. Alternatively, the 2.5 μl addition of CaCl2 was performed using a Viaflow 384, plates were incubated at RT for 10 min, and dye fluorescence measured after 10 min on the CLARIOstar plate reader. pIC50 values for tested compounds were calculated using the fluorescence value collected at the 10 min timepoint on either plate reader, with % inhibition calculated using the DMSO control and cyclosporin A values as 0 and 100% respectively.
Structure (SMILES),mPTP Rat brain pIC50 (mPTP [1]),mPTP Rat liver pIC50* (mPTP [2]),activity in the rat brain mitochondria assay (ranking in words) (mPTP [1]; among tested Example compounds)
"O=C(c1nccc(=O)[nH]1)N1CC(c2ccccc2)C2(CC(F)C2)C1 (single isomer, unassigned) [Example 25a, 2-(2-fluoro-8-phenyl-6-azaspiro[3.4]octane-6-carbonyl)pyrimidin-4(3H)-one]",6.88,6.33,
"CCC1CN(C(=O)c2cncc(=O)[nH]2)CC1c1ccccc1 (single isomer, unassigned) [Example 15b, 6-(3-ethyl-4-phenylpyrrolidine-1-carbonyl)pyrazin-2(1H)-one]",4.81,<4.52,
"O=C(c1nccc(=O)[nH]1)N1CC(c2ccccc2)C2(CC(F)C2)C1 (single isomer, unassigned) [Example 25c, 2-(2-fluoro-8-phenyl-6-azaspiro[3.4]octane-6-carbonyl)pyrimidin-4(3H)-one]",6.54,5.68,
"O=C(c1cncc(=O)[nH]1)N1CC(c2cccc(Cl)c2F)C2(CCC2)C1 (single isomer, unassigned) [Example 33b, 6-(8-(3-chloro-2-fluorophenyl)-6-azaspiro[3.4]octane-6-carbonyl)pyrazin-2(1H)-one]",<4.52,<4.52,
"O=C(c1nccc(=O)[nH]1)N1CC(c2ccccc2)C2(CCC2)C1 (single isomer, unassigned) [Example 21b, 2-[8-phenyl-6-azaspiro[3.4]octane-6-carbonyl]-3H-pyrimidin-4-one]",<4.52,<4.52,
"O=C(c1cncc(=O)[nH]1)N1CC(c2ccccc2Cl)C2(CCC2)C1 (single isomer, unassigned) [Example 30a, 6-(8-(2-chlorophenyl)-6-azaspiro[3.4]octane-6-carbonyl)pyrazin-2(1H)-one]",6.92,5.28,
"O=C(c1cc(O)no1)N1CC(c2ccc(F)cc2)C2(CCC2)C1 (single isomer, unassigned) [Example 36a, (8-(4-fluorophenyl)-6-azaspiro[3.4]octan-6-yl)(3-hydroxyisoxazol-5-yl)methanone]",7.53,6.65,highest activity
"Cn1nc(C(=O)N2C[C@H](c3ccccc3)C3(CCC3)C2)[nH]c1=O (single isomer, unassigned) [Example 5c]",<4.52,<4.52,
"CC1(C)CN(C(=O)c2cncc(=O)[nH]2)CC1c1ccccc1 (single isomer, unassigned) [Example 10a, 6-(3,3-dimethyl-4-phenylpyrrolidine-1-carbonyl)pyrazin-2(1H)-one]",7.03,6.18,
"O=C(c1cc(O)no1)N1CC(c2ccc(F)c(F)c2)C2(CCC2)C1 (single isomer, unassigned) [Example 46b, (8-(3,4-difluorophenyl)-6-azaspiro[3.4]octan-6-yl)(3-hydroxyisoxazol-5-yl)methanone]",7.03,<4.52,
"O=C(c1cncc(=O)[nH]1)N1CC(c2ccc(Br)cc2)C2(CCC2)C1 (single isomer, unassigned) [Example 29a, 6-(8-(4-bromophenyl)-6-azaspiro[3.4]octane-6-carbonyl)pyrazin-2(1H)-one]",6.2,4.59,
"O=C(c1cc(O)no1)N1CC(c2ccc(F)c(F)c2)C2(CCC2)C1 (single isomer, unassigned) [Example 46a, (8-(3,4-difluorophenyl)-6-azaspiro[3.4]octan-6-yl)(3-hydroxyisoxazol-5-yl)methanone]",7.44,6.28,
"O=C(c1cc(O)no1)N1CC(c2cccc(F)c2)C2(CCC2)C1 (single isomer, unassigned) [Example 38b, (8-(3-fluorophenyl)-6-azaspiro[3.4]octan-6-yl)(3-hydroxyisoxazol-5-yl)methanone]",<4.52,<4.52,
"CC1(C)CN(C(=O)c2cncc(O)c2)CC1c1ccccc1 (stereo not shown) [Example 4, (3,3-dimethyl-4-phenylpyrrolidin-1-yl)(5-hydroxypyridin-3-yl)methanone]",6.22,5.47,
"O=C(c1cnn[nH]1)N1CC(c2ccccc2)C2(CCC2)C1 (single isomer, unassigned) [Example 14b, 8-phenyl-6-(3H-1,2,3-triazole-4-carbonyl)-6-azaspiro[3.4]octane]",,<4.52,
"O=C(c1cc(O)ccn1)N1CC(c2ccccc2)C2(CCC2)C1 (stereo not shown) [Example 3, (4-hydroxypyridin-2-yl)(8-phenyl-6-azaspiro[3.4]octan-6-yl)methanone]",,5.14,
"Cn1nc(C(=O)N2CC(c3ccccc3)C3(CCC3)C2)[nH]c1=O (stereo not shown) [Example 5a, 2-methyl-5-(8-phenyl-6-azaspiro[3.4]octane-6-carbonyl)-2,4-dihydro-3H-1,2,4-triazol-3-one]",,5.04,
"O=C(c1cncc(=O)[nH]1)N1CC2(CCC2)C1c1ccccc1 (stereo not shown) [Example 12, 6-(1-phenyl-2-azaspiro[3.3]heptane-2-carbonyl)pyrazin-2(1H)-one]",,<4.52,
"CC1CN(C(=O)c2cncc(=O)[nH]2)CC1c1ccccc1 (stereo not shown) [Example 13, 6-(3-methyl-4-phenylpyrrolidine-1-carbonyl)pyrazin-2(1H)-one]",,4.55,
"O=C(c1noc(=O)[nH]1)N1CC(c2cccc(F)c2)C2(CCC2)C1 (single isomer, unassigned) [Example 49b, 3-(8-(3-fluorophenyl)-6-azaspiro[3.4]octane-6-carbonyl)-1,2,4-oxadiazol-5(4H)-one]",<4.52,,
"O=C(c1cncc(O)c1)N1CC(c2ccccc2)C2(CCC2)C1 (single isomer, unassigned) [Example 1c, (5-hydroxypyridin-3-yl)(8-phenyl-6-azaspiro[3.4]octan-6-yl)methanone]",,<4.52,
"O=C(c1noc(=O)[nH]1)N1CC(c2cccc(F)c2)C2(CCC2)C1 (single isomer, unassigned) [Example 49a, 3-(8-(3-fluorophenyl)-6-azaspiro[3.4]octane-6-carbonyl)-1,2,4-oxadiazol-5(4H)-one]",,6.52,
